Assay results: article PMC11953117 (Cancer Chemotherapy and Pharmacology, 2025)

Assay: Safety endpoints (treatment-emergent AEs, CTCAE v4) in three phase 1 studies
Assay type: in vivo, human
Excerpt: AEs were collected throughout the trials, graded using Common Terminology Criteria for Adverse Events v4. Treatment-emergent AEs (TEAEs), defined as any AE that started after the first dose of study treatment or that started prior to dosing and worsened during on treatment period (by investigator report of a change in intensity) following exposure to treatment, were included in the analysis.
The rash AE endpoint pooled the following Medical Dictionary for Regulatory Activities (MedDRA) preferred terms: rash maculo-papular, rash macular, rash, rash generalized, rash papular and rash pruritic, while the diarrhea AE and hyperglycemia AE included the MedDRA preferred terms diarrhea and hyperglycemia, respectively.
The grade selection for diarrhea and rash was based on clinical relevance in terms of limiting quality of life; for hyperglycemia the grade was higher considering this is a pharmacodynamic effect of AKT inhibition and often seen as asymptomatic change of laboratory value only.

[1] = Continuous BID, 80 mg, N=8, pooled studies
[2] = Continuous BID, 160 mg, N=5, pooled studies
[3] = Continuous BID, 240 mg, N=13, pooled studies
[4] = Continuous BID, 320 mg, N=18, pooled studies
[5] = Continuous BID, 400 mg, N=16, pooled studies
[6] = Continuous BID, 480 mg, N=6, pooled studies
[7] = Continuous BID, 600 mg, N=2, pooled studies
[8] = Total, all doses and schedules, N=277
[9] = [2/5] BID, 640 mg, N=14, pooled studies
[10] = [2/5] BID, 800 mg, N=14, pooled studies
[11] = [4/3] BID, 360 mg, N=8, pooled studies
[12] = [4/3] BID, 480 mg, N=163, pooled studies
[13] = [4/3] BID, 640 mg, N=10, pooled studies
[14] = in total, across all doses and schedules

Compound: NC1(C(=O)N[C@@H](CCO)c2ccc(Cl)cc2)CCN(c2ncnc3[nH]ccc23)CC1 [capivasertib, 4-amino-N-[(1S)-1-(4-chlorophenyl)-3-hydroxypropyl]-1-(7H-pyrrolo[2,3-d]pyrimidin– 4-yl)piperidine-4-carboxamide]
- AE grade ≥ 1 [1]: 8 (100) n (%)
- AE grade ≥ 3 [1]: 2 (25.0) n (%)
- AEDD (AE leading to dose discontinuation) [1]: 0 n (%)
- AEDM (AE leading to dose modification) [1]: 2 (25.0) n (%)
- Diarrhea AE grade ≥ 2 [1]: 0 n (%)
- Hyperglycemia AE grade ≥ 3 [1]: 0 n (%)
- Increased BG > 13.9 mmol/L [1]: 0 n (%)
- Rash AE grade ≥ 2 [1]: 1 (12.5) n (%)
- SAE [1]: 2 (25.0) n (%)
- AE grade ≥ 1 [2]: 5 (100) n (%)
- AE grade ≥ 3 [2]: 0 n (%)
- AEDD (AE leading to dose discontinuation) [2]: 0 n (%)
- AEDM (AE leading to dose modification) [2]: 1 (20.0) n (%)
- Diarrhea AE grade ≥ 2 [2]: 0 n (%)
- Hyperglycemia AE grade ≥ 3 [2]: 0 n (%)
- Increased BG > 13.9 mmol/L [2]: 0 n (%)
- Rash AE grade ≥ 2 [2]: 1 (20.0) n (%)
- SAE [2]: 1 (20.0) n (%)
- AE grade ≥ 1 [3]: 12 (92.3) n (%)
- AE grade ≥ 3 [3]: 4 (30.8) n (%)
- AEDD (AE leading to dose discontinuation) [3]: 1 (7.7) n (%)
- AEDM (AE leading to dose modification) [3]: 2 (15.4) n (%)
- Diarrhea AE grade ≥ 2 [3]: 4 (30.8) n (%)
- Hyperglycemia AE grade ≥ 3 [3]: 2 (15.4) n (%)
- Increased BG > 13.9 mmol/L [3]: 4 (30.8) n (%)
- Rash AE grade ≥ 2 [3]: 3 (23.1) n (%)
- SAE [3]: 0 n (%)
- AE grade ≥ 1 [4]: 18 (100) n (%)
- AE grade ≥ 3 [4]: 10 (55.6) n (%)
- AEDD (AE leading to dose discontinuation) [4]: 3 (16.7) n (%)
- AEDM (AE leading to dose modification) [4]: 8 (44.4) n (%)
- Diarrhea AE grade ≥ 2 [4]: 5 (27.8) n (%)
- Hyperglycemia AE grade ≥ 3 [4]: 2 (11.1) n (%)
- Increased BG > 13.9 mmol/L [4]: 3 (16.7) n (%)
- Rash AE grade ≥ 2 [4]: 5 (27.8) n (%)
- SAE [4]: 4 (22.2) n (%)
- AE grade ≥ 1 [5]: 16 (100) n (%)
- AE grade ≥ 3 [5]: 15 (93.8) n (%)
- AEDD (AE leading to dose discontinuation) [5]: 7 (43.8) n (%)
- AEDM (AE leading to dose modification) [5]: 15 (93.8) n (%)
- Diarrhea AE grade ≥ 2 [5]: 10 (62.5) n (%)
- Hyperglycemia AE grade ≥ 3 [5]: 4 (25.0) n (%)
- Increased BG > 13.9 mmol/L [5]: 7 (43.8) n (%)
- Rash AE grade ≥ 2 [5]: 8 (50.0) n (%)
- SAE [5]: 6 (37.5) n (%)
- AE grade ≥ 1 [6]: 6 (100) n (%)
- AE grade ≥ 3 [6]: 6 (100) n (%)
- AEDD (AE leading to dose discontinuation) [6]: 4 (66.7) n (%)
- AEDM (AE leading to dose modification) [6]: 5 (83.3) n (%)
- Diarrhea AE grade ≥ 2 [6]: 5 (83.3) n (%)
- Hyperglycemia AE grade ≥ 3 [6]: 2 (33.3) n (%)
- Increased BG > 13.9 mmol/L [6]: 2 (33.3) n (%)
- Rash AE grade ≥ 2 [6]: 3 (50.0) n (%)
- SAE [6]: 6 (100) n (%)
- AE grade ≥ 1 [7]: 2 (100) n (%)
- AE grade ≥ 3 [7]: 2 (100) n (%)
- AEDD (AE leading to dose discontinuation) [7]: 2 (100) n (%)
- AEDM (AE leading to dose modification) [7]: 1 (50.0) n (%)
- Diarrhea AE grade ≥ 2 [7]: 1 (50.0) n (%)
- Hyperglycemia AE grade ≥ 3 [7]: 0 n (%)
- Increased BG > 13.9 mmol/L [7]: 1 (50.0) n (%)
- Rash AE grade ≥ 2 [7]: 2 (100) n (%)
- SAE [7]: 2 (100) n (%)
- AE grade ≥ 1 [8]: 274 (98.9) n (%)
- AE grade ≥ 3 [8]: 182 (65.7) n (%)
- AEDD (AE leading to dose discontinuation) [8]: 51 (18.4) n (%)
- AEDM (AE leading to dose modification) [8]: 139 (50.2) n (%)
- Diarrhea AE grade ≥ 2 [8]: 102 (36.8) n (%)
- Hyperglycemia AE grade ≥ 3 [8]: 72 (26.0) n (%)
- Increased BG > 13.9 mmol/L [8]: 126 (45.5) n (%)
- Rash AE grade ≥ 2 [8]: 73 (26.4) n (%)
- SAE [8]: 107 (38.6) n (%)
- AE grade ≥ 1 [9]: 14 (100) n (%)
- AE grade ≥ 3 [9]: 11 (78.6) n (%)
- AEDD (AE leading to dose discontinuation) [9]: 2 (14.3) n (%)
- AEDM (AE leading to dose modification) [9]: 2 (14.3) n (%)
- Diarrhea AE grade ≥ 2 [9]: 3 (21.4) n (%)
- Hyperglycemia AE grade ≥ 3 [9]: 7 (50.0) n (%)
- Increased BG > 13.9 mmol/L [9]: 8 (57.1) n (%)
- Rash AE grade ≥ 2 [9]: 2 (14.3) n (%)
- SAE [9]: 7 (50.0) n (%)
- AE grade ≥ 1 [10]: 14 (100) n (%)
- AE grade ≥ 3 [10]: 8 (57.1) n (%)
- AEDD (AE leading to dose discontinuation) [10]: 1 (7.1) n (%)
- AEDM (AE leading to dose modification) [10]: 8 (57.1) n (%)
- Diarrhea AE grade ≥ 2 [10]: 3 (21.4) n (%)
- Hyperglycemia AE grade ≥ 3 [10]: 5 (35.7) n (%)
- Increased BG > 13.9 mmol/L [10]: 9 (64.3) n (%)
- Rash AE grade ≥ 2 [10]: 2 (14.3) n (%)
- SAE [10]: 5 (35.7) n (%)
- AE grade ≥ 1 [11]: 6 (75.0) n (%)
- AE grade ≥ 3 [11]: 3 (37.5) n (%)
- AEDD (AE leading to dose discontinuation) [11]: 0 n (%)
- AEDM (AE leading to dose modification) [11]: 3 (37.5) n (%)
- Diarrhea AE grade ≥ 2 [11]: 4 (50.0) n (%)
- Hyperglycemia AE grade ≥ 3 [11]: 1 (12.5) n (%)
- Increased BG > 13.9 mmol/L [11]: 3 (37.5) n (%)
- Rash AE grade ≥ 2 [11]: 1 (12.5) n (%)
- SAE [11]: 0 n (%)
- AE grade ≥ 1 [12]: 163 (100) n (%)
- AE grade ≥ 3 [12]: 114 (69.9) n (%)
- AEDD (AE leading to dose discontinuation) [12]: 27 (16.6) n (%)
- AEDM (AE leading to dose modification) [12]: 90 (55.2) n (%)
- Diarrhea AE grade ≥ 2 [12]: 64 (39.3) n (%)
- Hyperglycemia AE grade ≥ 3 [12]: 45 (27.6) n (%)
- Increased BG > 13.9 mmol/L [12]: 82 (50.3) n (%)
- Rash AE grade ≥ 2 [12]: 45 (27.6) n (%)
- SAE [12]: 68 (41.7) n (%)
- AE grade ≥ 1 [13]: 10 (100) n (%)
- AE grade ≥ 3 [13]: 7 (70.0) n (%)
- AEDD (AE leading to dose discontinuation) [13]: 4 (40) n (%)
- AEDM (AE leading to dose modification) [13]: 2 (20.0) n (%)
- Diarrhea AE grade ≥ 2 [13]: 3 (30.0) n (%)
- Hyperglycemia AE grade ≥ 3 [13]: 4 (40.0) n (%)
- Increased BG > 13.9 mmol/L [13]: 7 (70.0) n (%)
- Rash AE grade ≥ 2 [13]: 0 n (%)
- SAE [13]: 6 (60.0) n (%)
- patients with AE grade ≥ 1 [14]: 98.9%
- patients with AEs grade ≥ 3 [14]: 65.7%
- patients with AEs leading to dose discontinuation [14]: 18.4%
- patients with AEs leading to dose modification [14]: 50.2%
- patients with SAEs [14]: 38.6%
- patients with diarrhea AE grade ≥ 2 [14]: 36.8%
- patients with hyperglycemia grade ≥ 3 [14]: 26.0%
- patients with increased blood glucose > 13.9 mmol/L [14]: 45.5%
- patients with rash AE grade ≥ 2 [14]: 26.4%
